Patent US20230053540A1, “TREATMENT OF LIVER INJURY” (Massachusetts Institute of Technology, priority 2019, published 2023)

System: hepatocytes
Assay: Seq-Well scRNA-Seq of hepatocytes after APAP overdose (signature scores, DEG vs untreated)
Assay type: in vivo, mouse
[1] = time point A24 vs untreated (UT)

CC(=O)Nc1ccc(O)cc1 [APAP, acetaminophen]
Psme4 pct.1 (time point A24): 0.58 | Ptprf pct.1 (time point A24): 0.588 | Raf13 pct.1 (time point A24): 0.612 | Ranbp2 pct.1 (time point A24): 0.484 | Rarres2 pct.1 (time point A24): 0.83 | Rpl13 pct.1 (time point A24): 0.306 | Rplp1 pct.1 (time point A24): 0.597 | Rps9 pct.1 (time point A24): 0.519 | Rps15 pct.1 (time point A24): 0.379 | Sbno1 pct.1 (time point A24): 0.36 | Sc4mol pct.1 (time point A24): 0.5 | Sco2 pct.1 (time point A24): 0.346 | Sec31a pct.1 (time point A24): 0.462 | Selenbp1 pct.1 (time point A24): 0.563 | Sh3bgrl pct.1 (time point A24): 0.512 | Slc38a10 pct.1 (time point A24): 0.449 | Slc39a14 pct.1 (time point A24): 0.495 | Srebf1 pct.1 (time point A24): 0.439 | Srp72 pct.1 (time point A24): 0.597 | Srpr pct.1 (time point A24): 0.532 | Stat3 pct.1 (time point A24): 0.459 | Stt3b pct.1 (time point A24): 0.485 | Surf4 pct.1 (time point A24): 0.656 | Tmem243 pct.1 (time point A24): 0.407 | Tob1 pct.1 (time point A24): 0.565 | Trib1 pct.1 (time point A24): 0.455 | Trip12 pct.1 (time point A24): 0.504 | Txndc5 pct.1 (time point A24): 0.48 | Txnrd1 pct.1 (time point A24): 0.564 | Uggt1 pct.1 (time point A24): 0.385 | Uqcr11 pct.1 (time point A24): 0.769 | Vkorc1 pct.1 (time point A24): 0.38 | Xiap pct.1 (time point A24): 0.504 | Zbtb20 pct.1 (time point A24): 0.566 | Adck3 avg_logFC [1]: −0.2825 | Arhgap5 avg_logFC [1]: 0.2952 | Arhgef12 avg_logFC [1]: 0.3047 | Arl5a avg_logFC [1]: 0.2648 | Atp1a1 avg_logFC [1]: 0.27 | Atp5e avg_logFC [1]: −0.3136 | Atp5f1 avg_logFC [1]: −0.2872 | Atp6v1f avg_logFC [1]: −0.2529 | Atp11c avg_logFC [1]: 0.2605 | Atp13a3 avg_logFC [1]: 0.3037 | Azin1 avg_logFC [1]: 0.2701 | Bnip3 avg_logFC [1]: −0.2928 | Brd2 avg_logFC [1]: 0.2664 | Bzw1 avg_logFC [1]: 0.2841 | Cald1 avg_logFC [1]: 0.2589 | Caprin1 avg_logFC [1]: 0.2628 | Ces3b avg_logFC [1]: −0.2867 | Copb2 avg_logFC [1]: 0.2839 | Copz1 avg_logFC [1]: 0.2577 | Cox7b avg_logFC [1]: −0.2674 | Cpne3 avg_logFC [1]: 0.258 | Ctnnb1 avg_logFC [1]: 0.2957 | Cyp4a14 avg_logFC [1]: −0.3729 | Cyp27a1 avg_logFC [1]: −0.2516 | Ddost avg_logFC [1]: 0.2504 | Dennd5b avg_logFC [1]: 0.2935 | Deptor avg_logFC [1]: 0.2606 | Dnajb9 avg_logFC [1]: 0.2586 | Dnajb11 avg_logFC [1]: 0.3154 | Eci1 avg_logFC [1]: −0.2764 | Edem1 avg_logFC [1]: 0.2869 | Ehhadh avg_logFC [1]: −0.2505 | Eif4b avg_logFC [1]: 0.256 | Ell2 avg_logFC [1]: 0.2881 | Eprs avg_logFC [1]: 0.3013 | Erbb2ip avg_logFC [1]: 0.2797 | Erp44 avg_logFC [1]: 0.2795 | Esd avg_logFC [1]: −0.2538 | Fam120a avg_logFC [1]: 0.28 | Fasn avg_logFC [1]: 0.2914 | Fcgrt avg_logFC [1]: −0.2693 | Gch1 avg_logFC [1]: −0.2825 | Gm23935 avg_logFC [1]: 0.7213 | Gm24245 avg_logFC [1]: 0.4242 | Golga4 avg_logFC [1]: 0.2718 | Gpam avg_logFC [1]: 0.2504 | Grlf1 avg_logFC [1]: 0.295 | Gstm3 avg_logFC [1]: −0.3186 | H6pd avg_logFC [1]: 0.2614 | Id3 avg_logFC [1]: −0.3511 | Ide avg_logFC [1]: 0.2517 | Iqgap2 avg_logFC [1]: 0.2547 | Ireb2 avg_logFC [1]: 0.2657 | Jak1 avg_logFC [1]: 0.2541 | Lasp1 avg_logFC [1]: 0.253 | Lgr4 avg_logFC [1]: 0.269 | Lpin2 avg_logFC [1]: 0.2776 | Macf1 avg_logFC [1]: 0.2617 | Magt1 avg_logFC [1]: 0.2633 | Man2a1 avg_logFC [1]: 0.2833 | Mbnl1 avg_logFC [1]: 0.2502 | Met avg_logFC [1]: 0.2883 | Mt1 avg_logFC [1]: −0.3482 | Mtss1 avg_logFC [1]: 0.2876 | Nadk2 avg_logFC [1]: 0.2579 | Narf avg_logFC [1]: 0.2629 | Ndufa6 avg_logFC [1]: −0.3068 | Ndufb6 avg_logFC [1]: −0.3064 | Ndufc2 avg_logFC [1]: −0.308 | Nop10 avg_logFC [1]: −0.2649 | Nr1i3 avg_logFC [1]: −0.2821 | Nrp1 avg_logFC [1]: 0.3341 | Osbp19 avg_logFC [1]: 0.2788 | Osbpl1a avg_logFC [1]: 0.2728 | Ostc avg_logFC [1]: 0.2658 | Pik3c2a avg_logFC [1]: 0.2594 | Plin5 avg_logFC [1]: −0.2778 | Prdx4 avg_logFC [1]: −0.3074 | Prdx5 avg_logFC [1]: −0.2609 | Prkaa2 avg_logFC [1]: 0.2636 | Prox1 avg_logFC [1]: 0.2663 | Proz avg_logFC [1]: 0.2632 | Psme4 avg_logFC [1]: 0.2626 | Ptprf avg_logFC [1]: 0.3071 | Raf13 avg_logFC [1]: 0.2553 | Ranbp2 avg_logFC [1]: 0.2659 | Rarres2 avg_logFC [1]: −0.2666 | Rpl13 avg_logFC [1]: −0.2997 | Rplp1 avg_logFC [1]: −0.2866 | Rps9 avg_logFC [1]: −0.314 | Rps15 avg_logFC [1]: −0.3561 | Sbno1 avg_logFC [1]: 0.2505 | Sc4mol avg_logFC [1]: −0.2735 | Sco2 avg_logFC [1]: −0.2929 | Sec31a avg_logFC [1]: 0.263 | Selenbp1 avg_logFC [1]: −0.28 | Sh3bgrl avg_logFC [1]: 0.2513 | Slc38a10 avg_logFC [1]: 0.2855 | Slc39a14 avg_logFC [1]: 0.323 | Srebf1 avg_logFC [1]: 0.2762 | Srp72 avg_logFC [1]: 0.3107 | Srpr avg_logFC [1]: 0.3052 | Stat3 avg_logFC [1]: 0.2974 | Stt3b avg_logFC [1]: 0.3194 | Surf4 avg_logFC [1]: 0.2586 | Tmem243 avg_logFC [1]: −0.2656 | Tob1 avg_logFC [1]: 0.3129 | Trib1 avg_logFC [1]: 0.2875 | Trip12 avg_logFC [1]: 0.3283 | Txndc5 avg_logFC [1]: 0.2901 | Uggt1 avg_logFC [1]: 0.2845 | Uqcr11 avg_logFC [1]: −0.2632 | Vkorc1 avg_logFC [1]: −0.2974 | Xiap avg_logFC [1]: 0.2602 | Zbtb20 avg_logFC [1]: 0.3791 | pct.1 Acsl1 (time point A48A96): 0.977 | pct.1 Aldh3a2 (time point A48A96): 0.592 | pct.1 Atp1a1 (time point A48A96): 0.701 | pct.1 Atp5d (time point A48A96): 0.866 | pct.1 C6 (time point A48A96): 0.653 | pct.1 Ces1e (time point A48A96): 0.791 | pct.1 Ctsd (time point A48A96): 0.831 | pct.1 Cyp4a12a (time point A48A96): 0.509 | pct.1 Ech1 (time point A48A96): 0.951 | pct.1 F5 (time point A48A96): 0.881 | pct.1 F9 (time point A48A96): 0.836 | pct.1 F12 (time point A48A96): 0.922 | pct.1 Fcgrt (time point A48A96): 0.806 | pct.1 Fn1 (time point A48A96): 0.932 | pct.1 Ftl1 (time point A48A96): 0.438 | pct.1 Gabarapl1 (time point A48A96): 0.917 | pct.1 Gclm (time point A48A96): 0.893 | pct.1 Glul (time point A48A96): 0.257 | pct.1 Gm4076 (time point A48A96): 0.047 | pct.1 Gm20594 (time point A48A96): 0.222 | pct.1 Gsta2 (time point A48A96): 0.583 | pct.1 Hadha (time point A48A96): 0.895 | pct.1 Hal (time point A48A96): 0.824 | pct.1 Hgfac (time point A48A96): 0.682 | pct.1 Hsd17b4 (time point A48A96): 0.943 | pct.1 Ifitm3 (time point A48A96): 0.823 | pct.1 Inmt (time point A48A96): 0.935 | pct.1 Lpgat1 (time point A48A96): 0.747 | pct.1 Lpin1 (time point A48A96): 0.515 | pct.1 Ndufb2 (time point A48A96): 0.814 | pct.1 Park7 (time point A48A96): 0.902 | pct.1 Pck1 (time point A48A96): 0.998 | pct.1 Pipox (time point A48A96): 0.774 | pct.1 Ppp2r5a (time point A48A96): 0.803 | pct.1 Ptms (time point A48A96): 0.857 | pct.1 Rarres1 (time point A48A96): 0.327 | pct.1 Rpl32 (time point A48A96): 0.766 | pct.1 Rpl41 (time point A48A96): 0.304 | pct.1 Sardh (time point A48A96): 0.939 | pct.1 Sdhd (time point A48A96): 0.837 | pct.1 Sds (time point A48A96): 0.671 | pct.1 Sec61a1 (time point A48A96): 0.7 | pct.1 Serpina12 (time point A48A96): 0.38 | pct.1 Sfxn1 (time point A48A96): 0.702 | pct.1 Slc2a2 (time point A48A96): 0.716 | pct.1 Slc37a4 (time point A48A96): 0.717 | pct.1 Tmem106b (time point A48A96): 0.787 | pct.1 Ubb (time point A48A96): 0.465 | pct.1 Ubxn4 (time point A48A96): 0.802 | pct.1 Upb1 (time point A48A96): 0.895 | pct.1 Usmg5 (time point A48A96): 0.677 | pct.1 mmu-mir-6236 (time point A48A96): 0.859 | pct.1 mt-Atp6 (time point A48A96): 0.326
